Measured values reported in paper PMC4792470, “A Novel Manno-Oligosaccharide Binding Protein Identified in Alkaliphilic Bacillus sp. N16-5 Is Involved in Mannan Utilization” (PLoS ONE, 2016).

Molecular target: T1, ManH (Bacillus sp. N16-5, UniProt A0A140EH86)
T1 construct: without N-terminal signal peptide; pET-28a NcoI/BamHI, native stop codon in primer; E. coli BL21(DE3); anion exchange; primers give N-terminus (M)DENTGGN and C-terminus SLEGIE; full-length starts MNKKLWL by primer
T1 sequence (A0A140EH86 17-435): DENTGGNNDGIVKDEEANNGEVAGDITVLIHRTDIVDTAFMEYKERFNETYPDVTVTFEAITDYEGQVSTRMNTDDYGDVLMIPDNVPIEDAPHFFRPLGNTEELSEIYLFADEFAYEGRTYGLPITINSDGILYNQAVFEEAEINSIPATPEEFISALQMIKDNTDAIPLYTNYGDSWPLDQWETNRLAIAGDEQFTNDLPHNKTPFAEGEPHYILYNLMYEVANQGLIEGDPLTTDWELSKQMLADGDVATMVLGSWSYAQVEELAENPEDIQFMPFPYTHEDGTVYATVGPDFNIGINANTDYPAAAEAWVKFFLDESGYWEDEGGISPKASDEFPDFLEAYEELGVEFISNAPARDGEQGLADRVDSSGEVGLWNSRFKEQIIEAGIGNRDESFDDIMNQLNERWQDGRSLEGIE
Test: isothermal titration calorimetry
Format: binding
Conditions: 20 mM Tris-HCl pH 8.0, 200 mM NaCl, 30 °C; independent-site model
Description: isothermal titration calorimetry on ManH

Compound	Kd (1/Ka, μM)
OC[C@H]1O[C@@H](O[C@H]2[C@H](O)[C@H](O)[C@H](O[C@H]3[C@H](O)[C@H](O)[C@H](O[C@H]4[C@H](O)[C@H](O)[C@H](O[C@H]5[C@H](O)[C@H](O)C(O)O[C@@H]5CO)O[C@@H]4CO)O[C@@H]3CO)O[C@@H]2CO)[C@@H](O)[C@@H](O)[C@@H]1O (stereo partly shown) [mannopentose]	0.8 µM
OC[C@H]1O[C@@H](O[C@H]2[C@H](O)[C@H](O)[C@H](O[C@H]3[C@H](O)[C@H](O)[C@H](O[C@H]4[C@H](O)[C@H](O)C(O)O[C@@H]4CO)O[C@@H]3CO)O[C@@H]2CO)[C@@H](O)[C@@H](O)[C@@H]1O (stereo partly shown) [mannotetraose]	2.2 µM
OC[C@H]1O[C@@H](O[C@H]2[C@H](O)[C@H](O)[C@H](O[C@H]3[C@H](O)[C@H](O)C(O)O[C@@H]3CO)O[C@@H]2CO)[C@@H](O)[C@@H](O)[C@@H]1O (stereo partly shown) [mannotriose]	3.8 µM
galactosyl-mannotriose	19.4 µM
